Data as given in patent US20190374533A1, “COMPOUNDS AND METHODS FOR INHIBITING NHE-MEDIATED ANTIPORT IN THE TREATMENT OF DISORDERS ASSOCIATED WITH FLUID RETENTION OR SALT OVERLOAD AND GASTROINTESTINAL TRACT DISORDERS” (Ardelyx, Inc., priority 2008, published 2019).

Biological target: T1, rat NHE-3 (Rattus norvegicus, UniProt P26433)
T1 construct: expressed in transfected cells; host or cells: Opossum kidney (OK) cells (ATCC), electroporated
Experiment: Cell-based assay of NHE-3 activity (Pharmacological Test Example 1)
Conditions: OK cells expressing rat NHE-3; 0-30 uM test compound, 5 uM EIPA
Description: Rat NHE-3-mediated Na^+-dependent H^+ antiport was measured using a modification of the pH sensitive dye method originally reported by Tsien (Proc. Natl. Acad. Sci. USA. (1984) 81(23): 7436-7440). Opossum kidney (OK) cells were obtained from the ATCC and propagated per their instructions. The rat NHE-3 gene was introduced into OK cells via electroporation, seeded into 96 well plates and grown overnight. Medium was aspirated from the wells, cells were washed twice with NaCl-HEPES buffer (100 mM NaCl, 50 mM HEPES, 10 mM glucose, 5 mM KCl, 2 mM CaCl2, 1 mM MgCl2, pH 7.4), then incubated for 30 min at room temperature with NH4Cl-HEPES buffer (20 mM NH4Cl, 80 mM NaCl, 50 mM HEPES, 5 mM KCl, 2 mM CaCl2), 1 mM MgCl2, pH 7.4) containing 5 uM BCECF-AM (Invitrogen). Cells were washed twice with Ammonium free, Nat-free HEPES (100 mM choline, 50 mM HEPES, 10 mM glucose, 5 mM KCl, 2 mM CaCl2), 1 mM MgCl2, pH 7.4) and incubated in the same buffer for 10 minutes at room temperature to lower intracellular pH. […] Initial rates were plotted as the average 3-6 replicates, and pIC50 values were estimated using GraphPad Prism.

T1 sequence (P26433 29-831): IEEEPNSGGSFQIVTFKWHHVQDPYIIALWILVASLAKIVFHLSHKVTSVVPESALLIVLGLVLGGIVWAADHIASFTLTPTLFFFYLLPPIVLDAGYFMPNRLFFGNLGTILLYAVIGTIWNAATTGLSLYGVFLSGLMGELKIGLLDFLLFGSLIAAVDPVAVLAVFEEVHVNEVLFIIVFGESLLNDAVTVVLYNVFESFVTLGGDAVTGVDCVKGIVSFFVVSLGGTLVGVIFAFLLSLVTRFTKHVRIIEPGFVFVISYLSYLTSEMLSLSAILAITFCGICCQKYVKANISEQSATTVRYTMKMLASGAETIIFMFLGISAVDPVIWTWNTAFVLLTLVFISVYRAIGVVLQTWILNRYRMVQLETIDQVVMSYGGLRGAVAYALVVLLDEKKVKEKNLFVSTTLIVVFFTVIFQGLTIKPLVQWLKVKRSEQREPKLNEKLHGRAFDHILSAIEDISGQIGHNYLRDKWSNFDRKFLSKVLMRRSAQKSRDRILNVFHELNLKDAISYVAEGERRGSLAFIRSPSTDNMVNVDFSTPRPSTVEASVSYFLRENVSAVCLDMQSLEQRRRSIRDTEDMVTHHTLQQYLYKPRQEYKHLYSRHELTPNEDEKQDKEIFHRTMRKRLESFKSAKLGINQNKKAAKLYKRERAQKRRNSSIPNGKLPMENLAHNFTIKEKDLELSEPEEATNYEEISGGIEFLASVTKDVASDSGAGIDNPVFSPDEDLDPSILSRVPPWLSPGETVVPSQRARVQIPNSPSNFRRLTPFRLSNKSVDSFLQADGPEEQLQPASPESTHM

Compound	rat NHE-3 Average pIC50
Nc1cccc(C2CN(CCOCCOCCOCCN3Cc4c(Cl)cc(Cl)cc4C(c4cccc(N)c4)C3)Cc3c(Cl)cc(Cl)cc32)c1 (stereo not drawn) [Example 171, 3,3′-(2,2′-(2,2′-(2,2′-oxybis(ethane-2,1-diyl)bis(oxy))bis(ethane-2,1-diyl))bis(6,8-dichloro-1,2,3,4-tetrahydroisoquinoline-4,2-diyl))dianiline]	<5.0
NC(N)=NCCCN1CCN(c2cccc(-c3nc(N=C(N)N)nc4ccc(Cl)cc34)c2)CC1 [Example 67, 2-(4-(3-(4-(3-guanidinopropyl)piperazin-1-yl)phenyl)-6-chloroquinazolin-2-yl)guanidine]	6 to 7
CN1Cc2c(Cl)cc(Cl)cc2C(c2cccc(S(=O)(=O)NCCOCCOCCNC(=O)C(C)(C)C(=O)NCCOCCOCCNS(=O)(=O)c3cccc(C4CN(C)Cc5c(Cl)cc(Cl)cc54)c3)c2)C1 (stereo not drawn) [Example 196, N1,N3-bis(2-(2-(2-(3-(6,8-dichloro-2-methyl-1,2,3,4-tetrahydroisoquinolin-4-yl)phenylsulfonamido)ethoxy)ethoxy)ethyl)-2,2-dimethylmalonamide]	5 to 6
CN1Cc2c(Cl)cc(Cl)cc2C(c2cccc(S(=O)(=O)NCCOCCOCCOCCNC(=O)CCCCCCC(=O)NCCOCCOCCOCCNS(=O)(=O)c3cccc(C4CN(C)Cc5c(Cl)cc(Cl)cc54)c3)c2)C1 (stereo not drawn) [Example 29, N1,N8-bis(2-(2-(2-(2-(3-(6,8-dichloro-2-methyl-1,2,3,4-tetrahydroisoquinolin-4-yl)phenylsulfonamido)ethoxy)ethoxy)ethoxy)ethyl)octanediamide]	6 to 7

Continued, values first:

rat NHE-3 Average pIC50	Compound
6 to 7	C/C(=C\c1cc(F)c(Oc2ccc(S(=O)(=O)NCCOCCOCCOCCOCCOCCOCCNC(=O)[C@H](O)[C@@H](O)C(=O)NCCOCCOCCOCCOCCOCCOCCNS(=O)(=O)c3ccc(Oc4c(F)cc(/C=C(\C)C(=O)N=C(N)N)cc4F)cc3)cc2)c(F)c1)C(=O)N=C(N)N [Example 210, (2R,3R)—N1,N4-bis(20-(4-(4-((E)-3-(diaminomethyleneamino)-2-methyl-3-oxoprop-1-enyl)-2,6-difluorophenoxy)phenylsulfonamido)-3,6,9,12,15,18-hexaoxaicosyl)-2,3-dihydroxysuccinamide]
6 to 7	N=C(N)Nc1nc(-c2cccc(N3CCN(CCCN)CC3)c2)c2cc(Cl)ccc2n1 [Example 65, 1-(4-(3-(4-(3-aminopropyl)piperazin-1-yl)phenyl)-6-chloroquinazolin-2-yl)guanidine]
6 to 7	CN1Cc2c(Cl)cc(Cl)cc2C(c2cccc(S(=O)(=O)NCCOCCOCCOCCN)c2)C1 (stereo not drawn) [Example 28, N-(2-(2-(2-(2-aminoethoxy)ethoxy)ethoxy)ethyl)-3-(6,8-dichloro-2-methyl-1,2,3,4-tetrahydroisoquinolin-4-yl)benzenesulfonamide]

Same assay, conditions: OK cells expressing rat NHE-3; 0-30 uM test compound, 5 uM EIPA; read-out: rat NHE-3 Average pIC50 (converted)

IC50	Compound
100 to 1000 nM	C/C(=C\c1cc(F)c(Oc2ccc(S(=O)(=O)NCCOCCOCCOCCNC(=O)NCCOCCOCCOCCNS(=O)(=O)c3ccc(Oc4c(F)cc(/C=C(\C)C(=O)N=C(N)N)cc4F)cc3)cc2)c(F)c1)C(=O)N=C(N)N [Example 46, N,N′-(13-oxo-3,6,9,17,20,23-hexaoxa-12,14-diazapentacosane-1,25-diyl)bis[(E)-N-(diaminomethylene)-3-(3,5-difluoro-4-(4-sulfamoylphenoxy)phenyl)-2-methylacrylamide]]
< 100 nM	CN1Cc2c(Cl)cc(Cl)cc2[C@H](c2ccc(S(=O)(=O)NCCOCCOCCOCCNC(=O)NCCCCNC(=O)NCCOCCOCCOCCNS(=O)(=O)c3ccc([C@@H]4CN(C)Cc5c(Cl)cc(Cl)cc54)cc3)cc2)C1 (single isomer, unassigned) [Example 251, (S or R)—N,N′-(13,20-dioxo-3,6,9,24,27,30-hexaoxa-12,14,19,21-tetraazadotriacontane-1,32-diyl)bis(4-((S or R)-6,8-dichloro-2-methyl-1,2,3,4-tetrahydroisoquinolin-4-yl)benzenesulfonamide)]
